According to PubChem BioAssay (NCI):
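Following 48 hours of exposure in 96-well plates, responses at five concentrations were used to interpolate endpoints linearly. TGI marks complete inhibition of growth.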

Key:
Assay in all cases: NCI anticancer screen, dose series, 48 h
BT-549 breast = system: BT-549 breast
IGROV1 ovarian = system: IGROV1 ovarian
HCT-15 colon = system: HCT-15 colon
UO-31 renal = system: UO-31 renal
SW-620 colon = system: SW-620 colon
CAKI-1 renal = system: CAKI-1 renal
RXF 393 renal = system: RXF 393 renal
EKVX NSCLC = system: EKVX NSCLC
T-47D breast = system: T-47D breast
PC-3 prostate = system: PC-3 prostate
MDA-MB-435 = system: MDA-MB-435
OVCAR-5 ovarian = system: OVCAR-5 ovarian
TK-10 renal = system: TK-10 renal
SK-MEL-5 melanoma = system: SK-MEL-5 melanoma
NCI-H460 lung = system: NCI-H460 lung
MALME-3M melanoma = system: MALME-3M melanoma
U251 CNS = system: U251 CNS
UACC-62 melanoma = system: UACC-62 melanoma
SF-268 CNS = system: SF-268 CNS
MDA-MB-231 breast = system: MDA-MB-231 breast
OVCAR-8 ovarian = system: OVCAR-8 ovarian
CCRF-CEM leukemia = system: CCRF-CEM leukemia
RPMI-8226 leukemia = system: RPMI-8226 leukemia
HCT-116 colon = system: HCT-116 colon
A549 NSCLC = system: A549 NSCLC
SNB-75 CNS = system: SNB-75 CNS
HT29 colon = system: HT29 colon
HCC-2998 colon = system: HCC-2998 colon
DU-145 prostate = system: DU-145 prostate
SR leukemia = system: SR leukemia
NCI/ADR-RES ovarian = system: NCI/ADR-RES ovarian
SNB-19 CNS = system: SNB-19 CNS
KM12 colon = system: KM12 colon
M14 melanoma = system: M14 melanoma
786-0 renal = system: 786-0 renal
NCI-H522 lung = system: NCI-H522 lung
SK-MEL-28 melanoma = system: SK-MEL-28 melanoma
MCF7 breast = system: MCF7 breast
SF-539 CNS = system: SF-539 CNS
MOLT-4 leukemia = system: MOLT-4 leukemia
NCI-H23 lung = system: NCI-H23 lung
LOX IMVI melanoma = system: LOX IMVI melanoma
SF-295 CNS = system: SF-295 CNS
NCI-H226 lung = system: NCI-H226 lung
SK-OV-3 ovarian = system: SK-OV-3 ovarian
ACHN renal = system: ACHN renal
SN12C renal = system: SN12C renal
A498 renal = system: A498 renal
HS 578T breast = system: HS 578T breast
HL-60(TB) leukemia = system: HL-60(TB) leukemia
HOP-62 NSCLC = system: HOP-62 NSCLC
UACC-257 melanoma = system: UACC-257 melanoma
OVCAR-3 ovarian = system: OVCAR-3 ovarian
MDA-N = system: MDA-N
COLO 205 colon = system: COLO 205 colon
SK-MEL-2 melanoma = system: SK-MEL-2 melanoma
HOP-92 NSCLC = system: HOP-92 NSCLC
OVCAR-4 ovarian = system: OVCAR-4 ovarian
K-562 leukemia = system: K-562 leukemia

## COC(=O)C1=C(C(=O)OC)C2OC1c1cc3ccccc3cc12
BT-549 breast
  TGI: 12 µM
IGROV1 ovarian
  TGI: 9.58 µM
HCT-15 colon
  TGI: 8.09 µM
UO-31 renal
  TGI: 2.91 µM
SW-620 colon
  TGI: 3.96 µM
CAKI-1 renal
  TGI: 4.26 µM
RXF 393 renal
  TGI: 3.29 µM
EKVX NSCLC
  TGI: 17.6 µM
T-47D breast
  TGI: 7.49 µM
PC-3 prostate
  TGI: 32.2 µM
MDA-MB-435
  TGI: 18 µM
OVCAR-5 ovarian
  TGI: 11.3 µM
TK-10 renal
  TGI: 11.3 µM
SK-MEL-5 melanoma
  TGI: 30.8 µM
NCI-H460 lung
  TGI: 46.3 µM
MALME-3M melanoma
  TGI: 6 µM
U251 CNS
  TGI: 32.7 µM
UACC-62 melanoma
  TGI: 27.9 µM
SF-268 CNS
  TGI: 34.9 µM
MDA-MB-231 breast
  TGI: 33.7 µM
OVCAR-8 ovarian
  TGI: 13.6 µM
CCRF-CEM leukemia
  TGI: > 100 µM
RPMI-8226 leukemia
  TGI: 5.41 µM
HCT-116 colon
  TGI: 4.29 µM
A549 NSCLC
  TGI: 37 µM
SNB-75 CNS
  TGI: 38.7 µM
HT29 colon
  TGI: 20.4 µM
HCC-2998 colon
  TGI: 23.4 µM
DU-145 prostate
  TGI: 21.6 µM
SR leukemia
  TGI: 3.55 µM
NCI/ADR-RES ovarian
  TGI: 30.7 µM
SNB-19 CNS
  TGI: 33.5 µM
KM12 colon
  TGI: > 58.1 µM
M14 melanoma
  TGI: 4.83 µM
786-0 renal
  TGI: 3.29 µM
NCI-H522 lung
  TGI: 2.9 µM
SK-MEL-28 melanoma
  TGI: 4.09 µM
MCF7 breast
  TGI: 59.9 µM
SF-539 CNS
  TGI: 12.1 µM
MOLT-4 leukemia
  TGI: 3.22 µM
NCI-H23 lung
  TGI: 11.8 µM
LOX IMVI melanoma
  TGI: 30.5 µM
SF-295 CNS
  TGI: 38.3 µM
NCI-H226 lung
  TGI: 11.6 µM
SK-OV-3 ovarian
  TGI: 33 µM
ACHN renal
  TGI: 3.03 µM
SN12C renal
  TGI: 30.8 µM
A498 renal
  TGI: 36.7 µM
HS 578T breast
  TGI: 43.6 µM
HL-60(TB) leukemia
  TGI: 2.22 µM
HOP-62 NSCLC
  TGI: 34.7 µM
UACC-257 melanoma
  TGI: 17.5 µM
OVCAR-3 ovarian
  TGI: 7.29 µM
MDA-N
  TGI: 17.5 µM
COLO 205 colon
  TGI: 3.39 µM
SK-MEL-2 melanoma
  TGI: 29.5 µM
HOP-92 NSCLC
  TGI: 6.34 µM

## Cc1cc2c(cc1C)C(=O)/C(=N/Nc1ccc(F)cc1)CCO2
BT-549 breast
  TGI: > 100 µM
IGROV1 ovarian
  TGI: > 100 µM
HCT-15 colon
  TGI: > 100 µM
UO-31 renal
  TGI: > 100 µM
SW-620 colon
  TGI: > 100 µM
CAKI-1 renal
  TGI: > 100 µM
EKVX NSCLC
  TGI: > 100 µM
T-47D breast
  TGI: > 100 µM
PC-3 prostate
  TGI: > 100 µM
MDA-MB-435
  TGI: > 100 µM
OVCAR-5 ovarian
  TGI: > 100 µM
TK-10 renal
  TGI: > 100 µM
SK-MEL-5 melanoma
  TGI: > 100 µM
NCI-H460 lung
  TGI: > 100 µM
MALME-3M melanoma
  TGI: > 100 µM
U251 CNS
  TGI: > 100 µM
UACC-62 melanoma
  TGI: > 100 µM
SF-268 CNS
  TGI: > 100 µM
MDA-MB-231 breast
  TGI: > 100 µM
OVCAR-8 ovarian
  TGI: > 100 µM
CCRF-CEM leukemia
  TGI: > 100 µM
RPMI-8226 leukemia
  TGI: > 100 µM
HCT-116 colon
  TGI: > 100 µM
A549 NSCLC
  TGI: > 100 µM
HT29 colon
  TGI: > 100 µM
HCC-2998 colon
  TGI: > 100 µM
DU-145 prostate
  TGI: > 100 µM
SR leukemia
  TGI: > 100 µM
NCI/ADR-RES ovarian
  TGI: > 100 µM
OVCAR-4 ovarian
  TGI: > 100 µM
SNB-19 CNS
  TGI: > 100 µM
KM12 colon
  TGI: > 100 µM
M14 melanoma
  TGI: > 100 µM
786-0 renal
  TGI: > 100 µM
NCI-H522 lung
  TGI: > 100 µM
SK-MEL-28 melanoma
  TGI: > 100 µM
MCF7 breast
  TGI: > 100 µM
SF-539 CNS
  TGI: > 100 µM
MOLT-4 leukemia
  TGI: > 100 µM
NCI-H23 lung
  TGI: > 100 µM
LOX IMVI melanoma
  TGI: > 100 µM
K-562 leukemia
  TGI: > 100 µM
SF-295 CNS
  TGI: > 100 µM
NCI-H226 lung
  TGI: > 100 µM
SK-OV-3 ovarian
  TGI: > 100 µM
ACHN renal
  TGI: > 100 µM
SN12C renal
  TGI: > 100 µM
A498 renal
  TGI: > 100 µM
HS 578T breast
  TGI: > 100 µM
HL-60(TB) leukemia
  TGI: > 100 µM
HOP-62 NSCLC
  TGI: > 100 µM
UACC-257 melanoma
  TGI: > 100 µM
OVCAR-3 ovarian
  TGI: > 100 µM
MDA-N
  TGI: > 100 µM
COLO 205 colon
  TGI: > 100 µM
SK-MEL-2 melanoma
  TGI: 97 µM
HOP-92 NSCLC
  TGI: > 100 µM
